This is an account of results in patent US20240415921A1, “METHODS OF TREATING CANCER BY TARGETING TUMOR-ASSOCIATED MACROPHAGES” (ENDOCYTE, INC., priority 2014, published 2024).

The subject of this assay is 4T1 TAMs. Kind of assay: Activity against 4T1 TAMs in-vivo (FACS of harvested tumors). The conditions noted are these: single i.v. dose (Example 1 100 nmol/kg; EC0923 alone 50 μmol/kg), tumors harvested four days later. More on the design: species or system nude rats. The text has this:
EXAMPLE 4. Example 1 activity against 4T1 TAMs in-vivo. As a proof-of-concept study, female Foxn1^nu nude rats (Harlan, Inc., Indianapolis, IN) on a folate-deficient diet are subcutaneously implanted with 1×10^6 4T1 tumor cells in the left and right mammary regions (2 tumors per animal). When the tumors reach about 900-1000 mm^3, the animals are intravenously dosed with (i) PBS (n=1), (ii) 100 nmol/kg of the folic acid-releasable linker-drug conjugate, such as Example1 (n=1), (iii) 100 nmol/kg of Example1 plus 50 μmol/kg of EC0923 (n=1), or (iv) 50 μmol/kg of EC0923 (n=1). Four days later, the tumors are harvested, enzymatically digested, and subjected to FACS analysis. The tumor cell suspensions are stained for macrophage markers (CD163 and/or CD11b), cell viability (propidium iodide), and late and early apoptosis (Annexin V).
EXAMPLE 13. Preparation of 4T1 xenograft tumors from nude rats and MDA-MB-231 tumors isolated from nude mice and A549 tumors isolated from nude mice. Each tumor is minced and placed into 20 mL of RPMI1640 (serum free) containing 0.5 mg/mL Collagenase IV, 0.05 mg/mL hyaluronidase, and 0.1 mg/mL DNaseI and placed in a shaker at 200 rpm for 1 hr at 37° C. […]

For the compound `Nc1nc2ncc(CNc3ccc(C(=O)N[C@@H](CCC(=O)N[C@H](CC(=O)O)C(=O)N[C@H](CC(=O)O)C(=O)O)C(=O)O)cc3)nc2c(=O)[nH]1` [EC0923, pteroyl-[…]Glu-D-Asp-D-Asp], the “viable CD163(+) CD11b(+) TAM population in 4T1 tumors” value is reported as “does not have any effect”.
